This assay concerns murine neural precursor cells (neurosphere cultures). The experiment in a line: HTS of LOPAC library against secondary neurosphere cultures, MTT proliferation assay at 3 μM, day 7 (z score, P value). The assay is classed as cell-based, mouse. In general terms: Tetrazolium assays rely on reduction of a dye to a coloured formazan, in cell work by metabolically active cells.
The mark [1] stands for this setting: LOPAC library screen at 3 μM, secondary neurosphere cultures, MTT.
The mark [2] stands for this setting: LOPAC screen, neurosphere MTT proliferation, 3 μM, day 7.
[3] abbreviates: yes/no: significantly inhibited neurosphere proliferation (P<0.01) in primary screen.
Setting [4] is: LOPAC library screen, 3 μM, MTT, secondary neurosphere cultures, day 7.
Setting [5] is: LOPAC primary screen, neurosphere MTT proliferation, 3 μM, day 7.
Setting [6] is: yes/no: significantly inhibited neurosphere proliferation (P<0.01) in the primary screen.
Setting [7] is: LOPAC library screen, 3 μM, MTT, neurosphere cultures.
[8] abbreviates: yes/no: significantly inhibited neurosphere proliferation in the primary screen.

SMILES strings stand for the structures. Structures can show the parent of a compound that is named as a salt. Where two headings read alike, the source gives them in different places.

Take `NC(=NCc1ccccc1)NC(=O)c1nc(Cl)c(N)nc1N` [Benzamil hydrochloride]: the “Z Score” value under setting [1] is on record as −1.054. Under setting [2], the Z score is −1.054. Moreover, the Activity entry under setting [3] is on record as “no”.
As for `CN1[C@@H]2CC[C@H]1C[C@@H](OC(c1ccccc1)c1ccccc1)C2` [Benztropine mesylate], the “Z Score” value under setting [4] is recorded as −3.749. This compound registered a Z score under setting [5] of −3.749. For the same compound, the Activity entry under setting [6] was “yes”.
`CC(C)C[C@H](NC(=O)[C@@H](O)[C@H](N)Cc1ccccc1)C(=O)O` [Bestatin hydrochloride]: under setting [7], the “Z Score” value came to 0.6432. The Z score under setting [2] was found to be 0.643. For the same compound, the Activity result under setting [3] is listed as “no”.
As for `C[N+](C)(C)CC=O` [Betaine aldehyde chloride], the Activity result is “no”. Under “168 h, 3 µM”, the “Z Score” value is −0.07007 and the Z score was −0.070.
Turning to `C[N+](C)(C)CC(=O)O` [Betaine hydrochloride], the “Z Score” value under setting [4] is given as −2.668. For the same compound, the Z score under setting [5] is given as −2.668. The Activity entry under setting [6] is recorded as “yes”.
`C[C@H]1C[C@H]2[C@@H]3CCC4=CC(=O)C=C[C@]4(C)[C@@]3(F)[C@@H](O)C[C@]2(C)[C@@]1(O)C(=O)CO` [Betamethasone]: the “Z Score” value under setting [7] stood at 0.8811. Also, the Z score under setting [2] is reported as 0.881.
In the case of `CC(C)NCC(O)COc1ccc(CCOCC2CC2)cc1` (centres unmarked) [Betaxolol hydrochloride], the “Z Score” value under setting [7] is 0.9838. In addition, the Z score under setting [2] is on record as 0.984. Moreover, the Activity entry under setting [3] was “no”.
Turning to `CC(C[N+](C)(C)C)OC(N)=O` (centres unmarked) [Bethanechol chloride], the “Z Score” value under setting [1] is given as −0.6493. The Z score under setting [2] is given as −0.649. Further, under setting [3], the Activity result is reported as “no”.
As for `NC(=O)c1ccccc1` [Beuzamide], the “Z Score” value is given as 0.5498.
`CC[N+](C)(C)Cc1ccccc1Br` [Bretylium tosylate]: the Activity result is “no”. For the same compound, under setting [7], the “Z Score” value is −0.001709. The compound further yielded a Z score under setting [2] of −0.002.
For `C=CCc1ccccc1OCC(O)CNC1(C)CCC(C(C)(C)NC(=O)CBr)CC1` (centres unmarked) [Bromoacetyl alprenolol menthane], the “Z Score” value came out at 1.442. The compound also displayed a Z score under setting [2] of 1.442. Besides, the Activity result under setting [3] is recorded as “no”.
As for `C[N+](C)(C)CCOC(=O)CBr.[Br-]` [Bromoacetylcholine bromide], the “Z Score” value is on record as −0.3547. Besides, the Z score under setting [2] is −0.355. The Activity entry under setting [3] is “no”.
Take `O=C1O/C(=C/Br)CCC1c1cccc2ccccc12` (centres unmarked) [Bromoenol lactone]: for the setting “168 h, 3 µM”, the “Z Score” value is reported as 0.2484 and the Z score was found to be 0.248. Moreover, under setting [8], the Activity result was “no”.
In the case of `CCCC1O[C@@H]2C[C@H]3[C@@H]4CCC5=CC(=O)C=C[C@]5(C)[C@H]4[C@@H](O)C[C@]3(C)[C@]2(C(=O)CO)O1` (some centres unmarked) [Budesonide], the “Z Score” value under setting [4] is −1.994. For the same compound, the Z score under setting [2] is −1.994.
For the compound `CCCCNc1cc(C(=O)O)cc(S(N)(=O)=O)c1Oc1ccccc1` [Bumetanide], the “Z Score” value under setting [4] is recorded as −2.182. Also, the Z score under setting [2] is −2.182. The Activity entry under setting [3] is “no”.
As for `CC(NC(C)(C)C)C(=O)c1cccc(Cl)c1` (centres unmarked) [Bupropion hydrochloride], the “Z Score” value under setting [7] amounted to 0.2671. Moreover, the Z score under setting [2] turned out to be 0.267. Further, the Activity result under setting [3] is given as “no”.
In the case of `O=C1CC2(CCCC2)CC(=O)N1CCCCN1CCN(c2ncccn2)CC1` [Buspirone hydrochloride], the Activity entry was “no”. Where the note is “168 h, 3 µM”, the “Z Score” value is on record as −1.775 and the Z score is given as −1.775.
Take `CCCN(CCC)C(=O)Cc1c(-c2ccc(Cl)cc2)nc2c(Cl)cc(Cl)cn12` [CB34]: the “Z Score” value is on record as −1.081. This compound gave a Z score under setting [2] of −1.081. In addition, the Activity entry under setting [3] is listed as “no”.
Consider `NC(=O)c1cc(N2CC2)c([N+](=O)[O-])cc1[N+](=O)[O-]` [CB 1954], for which the “Z Score” value under setting [1] was −1.07. The Z score (primary LOPAC screen, 3 μM, MTT, neurosphere proliferation) is listed as −1.070. In addition, the Activity result under setting [8] is reported as “no”.

The record behind these values is US8058243B2, “Method for treating a brain cancer with ifenprodil” (HSC Research and Development Limited Partnership, priority 2006, dated 2011).
